The results in this text go back to patent US4855320A, “5-arylalkyl-4-alkoxy-2(5H)-furanones, intermediates and processes for the preparation thereof and medicaments containing them” (Dr. Willmar Schwabe GmbH & Company, priority 1986, dated 1989).

Some results are limits rather than exact numbers.

One series has as its system maximum electroshock spasm (MES) in male mice (NMRI). The experiment in a line: MES test (maximum electroshock spasm), inhibition of the extensor spasm. The class given is in vivo. Conditions: Mus musculus, 1 h; (4 h), mice; read-out: ED 50 in the MES test.
As for `O=C1NC(=O)C(c2ccccc2)(c2ccccc2)N1` [diphenylhydantoin, reference compound], the ED50 was 9.1 mg/kg.

Still in this series, the particulars now being: Mus musculus, ip, 1 h, read-out: ED 50 in the MES test.
With `CCCC(CCC)C(=O)O` [valproic acid, reference compound], the ED50 worked out at 205 mg/kg.

The series is the same for the next values; noted with them: Mus musculus, po, 1 h, read-out: ED 50 in the MES test.
In the case of `CCC1(c2ccccc2)C(=O)NC(=O)NC1=O` [phenobarbital, reference compound], the ED50 was 19.2 mg/kg.

The series is the same for the next values; noted with them: Mus musculus, po, 1 h, read-out: protective action after 1 hr. (MES test).
On to `CCC1(c2ccccc2)C(=O)NC(=O)NC1=O` [phenobarbital, reference compound], for which the responders at 100 mg/kg is 100%.

In the case of `CCCC(CCC)C(=O)O` [valproic acid, reference compound], the responders at 100 mg/kg amounted to 0%.

Still in this series, the particulars now being: Mus musculus, po; 50 mg/kg p.o., mice, 1 hr.; read-out: protective action after 1 hr. (MES test).
On to `NC(=O)N1c2ccccc2C=Cc2ccccc21` [carbamazepine, reference compound], for which the responders at 50 mg/kg is 100%.

For the compound `O=C1NC(=O)C(c2ccccc2)(c2ccccc2)N1` [diphenylhydantoin, reference compound], the responders at 50 mg/kg was 100%.

The series is the same for the next values; noted with them: Mus musculus, po; 100 mg/kg p.o., mice, 1 hr.; % of animals protected 100% against the extensor spasm; read-out: protective action after 1 hr. (MES test).
As for `COC1=CC(=O)O[C@H]1[C@H](O)c1ccccc1` (relative stereo) [Example 65, threo-4-methoxy-5-phenylhydroxymethyl-2(5H)-furanone], the responders at 100 mg/kg was 79%.

As to `CCC1(C)CC(=O)NC1=O` (centres unmarked) [Ethosuximide, reference compound], the responders at 100 mg/kg amounted to 0%.

Regarding `COC1=CC(=O)O[C@H]1[C@H](O)c1cc(Cl)ccc1Cl` (relative stereo) [Example 81, threo-5-(2,5-dichlorophenylhydroxymethyl)-4-methoxy-2(5H)-furanone], the responders at 100 mg/kg came to 100%.

For the compound `COC1=CC(=O)O[C@H]1[C@H](O)c1ccccc1Cl` (relative stereo) [Example 64, threo-5-(2-chlorophenylhydroxymethyl)-4-methoxy-2(5H)-furanone], the responders at 100 mg/kg worked out at 100%.

For the compound `COC1=CC(=O)O[C@H]1[C@H](O)c1ccc(Cl)cc1Cl` (relative stereo) [Example 79, threo-5-(2,4-dichlorophenylhydroxymethyl)-4-methoxy-2(5H)-furanone], the responders at 100 mg/kg came to 60%.

Consider `COC1=CC(=O)O[C@H]1[C@H](OC)c1ccccc1` (relative stereo) [Example 109, threo-4-methoxy-5-[methoxy-(phenyl)-methyl]-2(5H)-furanone], for which the responders at 100 mg/kg turned out to be 40%.

In the case of `COC1=CC(=O)O[C@H]1[C@H](OC)c1ccccc1Cl` (relative stereo) [Example 110, threo-4-methoxy-5-[methoxy-(2-chlorophenyl)-methyl]-2(5H)-furanone], the responders at 100 mg/kg turned out to be 100%.

For `COCO[C@H](c1ccccc1)[C@@H]1OC(=O)C=C1OC` (relative stereo) [Example 113, threo-4-methoxy-5-[methoxymethoxy-(phenyl)-methyl]-2(5H)-furanone], the responders at 100 mg/kg was 100%.

As for `COCO[C@H](c1ccccc1Cl)[C@@H]1OC(=O)C=C1OC` (relative stereo) [Example 107, threo-4-Methoxy-5-[methoxymethoxy-(2-chlorophenyl)-methyl]-2(5H)-furanone], the responders at 100 mg/kg was determined as 100%.

Staying with this series, now noted: Mus musculus, sc, 1 h, read-out: ED 50 in the MES test.
`CCCC(C)C1(CC)C(=O)NC(=O)NC1=O` (centres unmarked) [pentobarbital, reference compound]: the ED50 came to 35.2 mg/kg.

The series is the same for the next values; noted with them: Mus musculus; oral, mice, 1 hour after administration; read-out: ED 50 in the MES test.
On to `COC1=CC(=O)O[C@H]1[C@H](O)c1ccccc1` (relative stereo) [Example 65, threo-4-methoxy-5-phenylhydroxymethyl-2(5H)-furanone], for which the ED50 stood at 69 mg/kg.

On to `NC(=O)N1c2ccccc2C=Cc2ccccc21` [carbamazepine, reference compound], for which the ED50 was found to be 14.6 mg/kg.

Take `CCC1(C)CC(=O)NC1=O` (centres unmarked) [Ethosuximide, reference compound]: the ED50 was more than 250 mg/kg.

Regarding `COC1=CC(=O)O[C@H]1[C@H](O)c1cc(Cl)ccc1Cl` (relative stereo) [Example 81, threo-5-(2,5-dichlorophenylhydroxymethyl)-4-methoxy-2(5H)-furanone], the ED50 is 19.5 mg/kg.

Consider `COC1=CC(=O)O[C@H]1[C@H](O)c1ccccc1Cl` (relative stereo) [Example 64, threo-5-(2-chlorophenylhydroxymethyl)-4-methoxy-2(5H)-furanone], for which the ED50 is 19.8 mg/kg.

Turning to `COC1=CC(=O)O[C@H]1[C@H](O)c1ccc(Cl)cc1Cl` (relative stereo) [Example 79, threo-5-(2,4-dichlorophenylhydroxymethyl)-4-methoxy-2(5H)-furanone], the ED50 stood at 82.5 mg/kg.

`COC1=CC(=O)O[C@H]1[C@H](OC)c1ccccc1Cl` (relative stereo) [Example 110, threo-4-methoxy-5-[methoxy-(2-chlorophenyl)-methyl]-2(5H)-furanone]: the ED50 worked out at 27.5 mg/kg.

For the compound `COCO[C@H](c1ccccc1Cl)[C@@H]1OC(=O)C=C1OC` (relative stereo) [Example 107, threo-4-Methoxy-5-[methoxymethoxy-(2-chlorophenyl)-methyl]-2(5H)-furanone], the ED50 amounted to 24.5 mg/kg.

The test system of a further series is rats. The experiment in a line: Orientating toxicological investigations on rats. It counts as in vivo. Conditions: up to an oral dosage of 1000 mg./kg.
As to `COC1=CC(=O)O[C@H]1[C@H](O)c1ccccc1` (relative stereo) [Example 65, threo-4-methoxy-5-phenylhydroxymethyl-2(5H)-furanone], the mortality of rats entry was “no mortality of the animals”.

`COC1=CC(=O)O[C@H]1[C@H](O)c1cc(Cl)ccc1Cl` (relative stereo) [Example 81, threo-5-(2,5-dichlorophenylhydroxymethyl)-4-methoxy-2(5H)-furanone]: the mortality of rats result is listed as “no mortality of the animals”.

As to `COC1=CC(=O)O[C@H]1[C@H](O)c1ccccc1Cl` (relative stereo) [Example 64, threo-5-(2-chlorophenylhydroxymethyl)-4-methoxy-2(5H)-furanone], the mortality of rats entry is “no mortality of the animals”.

For `COC1=CC(=O)O[C@H]1[C@H](O)c1ccc(Cl)cc1Cl` (relative stereo) [Example 79, threo-5-(2,4-dichlorophenylhydroxymethyl)-4-methoxy-2(5H)-furanone], the mortality of rats entry is reported as “no mortality of the animals”.

Tested on in another series: not listed separately
The experiment in a line: Neurotoxicity observation (motility, muscle tonus, respiratory frequency, body temperature, general behaviour). Set-up: species or system mice (NMRI). Conditions: in vivo, po, mouse; read-out: Neurotoxic limiting dose in the mouse. The protocol: During the above-described experiments, the animals were observed during the whole of the experimental period (up to 4 hours) for signs of substance-caused changes of behaviour and neurotoxicity (motility, muscle tonus, respiratory frequency, body temperature and general behaviour).
With `CCC1(c2ccccc2)C(=O)NC(=O)NC1=O` [phenobarbital, reference compound], the TD50 came out at 60 mg/kg.

As to `CCCC(C)C1(CC)C(=O)NC(=O)NC1=O` (centres unmarked) [pentobarbital, reference compound], the TD50 stood at 60 mg/kg.

Take `CCCC(CCC)C(=O)O` [valproic acid, reference compound]: the TD50 was found to be 350 mg/kg.

Still in this series, the particulars now being: mouse, in vivo, po.
In turn, `NC(=O)N1c2ccccc2C=Cc2ccccc21` [carbamazepine, reference compound] registered a TD50 of 100 mg/kg.

Turning to `CCC1(C)CC(=O)NC1=O` (centres unmarked) [Ethosuximide, reference compound], the TD50 came out at 500 mg/kg.

As for `O=C1NC(=O)C(c2ccccc2)(c2ccccc2)N1` [diphenylhydantoin, reference compound], the TD50 came to 100 mg/kg.
